# Measured values: paper PMC8830681, “Circadian control of heparan sulfate levels times phagocytosis of amyloid beta aggregates” (PLoS Genetics, 2022)
# Tests used:
# [1] = system: bone-marrow derived macrophages (BMDMs) from Per2::Luc C57BL/6J mice; assay: Phagocytosis assay of HiLyte 488 labeled amyloid-beta by serum-shock synchronized macrophages (with or without heparinases); type: cell-based, mouse; conditions: ECHO v4.1 fit, average of 3 replicates, log10 mean cell fluorescence, 2 h uptake every 4 h PS16-PS40, WT Per2::Luc BMDMs
# From the text: To do so, we modified a previously-employed BMDM phagocytosis assay (as BMDMs are both models for activated microglia and are known to migrate into the brain in late-stage AD), to use fluorescently labeled Aβ42 to determine if the phagocytosis of Aβ42 is controlled by the circadian clock. In brief, BMDMs were derived from bone marrow progenitor cells extracted from Per2::Luc C57BL/6J mice and differentiated with recombinant Macrophage Colony Stimulating Factor (M-CSF), with flow cytometry confirming complete differentiation into naïve peripheral macrophages. […] 16 h after synchronization, confluent dishes of these BMDMs were treated HiLyte 488 labeled Aβ42 (Anaspec), in triplicate, every 4 h over a 24 h circadian period. BMDMs treated with labeled Aβ42 were harvested two hours after Aβ42 treatment and fixed with formalin. Total cellular fluorescence levels were analyzed with fluorescent confocal microscopy and quantified using a custom cell measurement MATLAB script (Fig 1A, S2 Fig, and S1 Table).
# Bone marrow was harvested from the femurs and tibias of one 3–6-month-old male mouse using a 26 g needle and syringe filled with DMEM supplemented media. ACK lysing buffer (Lonza 10-548E) was used to lyse red blood cells in order to prevent erythrocyte contamination. Filtered bone marrow cells were counted using a BioRad TC20 automated cell counter and plated on 35 mm cell culture plates at a density of 1 x 10^6 in macrophage differentiation media. After three days of incubation at 37°C with 5% CO2, fresh macrophage differentiation media was added. After another 3 days of incubation, the cells were washed with 2 ml warm PBS per plate, and replaced with macrophage assay media, and the cultures were incubated for 24 h. Macrophage cultures were then washed with 2 ml warm PBS, macrophage serum starvation media was added, and the plates were incubated in the starve media for 24 h. Next, macrophage serum starvation media was removed, and macrophage serum shock media was added, and cultures were incubated for 2 h. Macrophage cultures were then washed with 2 ml warmed PBS each and macrophage media Luciferin was added. Cultures were sealed with grease and glass cover slips and placed in a LumiCycle 32 luminometer (Actimetrics) to confirm synchronization of circadian rhythmicity. Assays began 16 h post serum shock to allow the synchronized cells to return to homeostasis.
# All amyloid-beta isoforms were reconstituted 24 h or less before experimentation in water and PBS (1:1) and were dissolved using sonication for approximately 30 min. The reconstituted Aβ was pooled from individual vials before aliquoting for each experimental replicate. The aliquots were then flash frozen and stored at -80°C until 20 min before use.
# Using synchronized macrophages (as described above) starting at PS16 macrophages were treated every 4 h for 24 h, in triplicate, with 115 μl (0.25 mg/ml) of fluorescently labeled amyloid-beta (PS16, PS20, PS24, PS28, PS32, PS36, and PS40) and heparinases at the reported activity levels (S5 Table). The treated macrophages were then incubated at 37°C for 2 h. Following the two-hour incubation, the media was aspirated, and the macrophages were washed with 2ml of PBS three times before Cell Stripper (Corning 25-056-CI) was added to the cultures, which were then incubated at 37°C for 3 min. Detached macrophages were next centrifuged at 400 g for 5 min, the supernatant was aspirated, and the macrophage cell pellets were resuspended in formalin and incubated in the dark at room temperature for 30 min. Macrophages were then centrifuged for 5 min at 400 g, the supernatant was aspirated, and the macrophages were resuspended in 250 μL of PBS and kept at 4°C. The fixed macrophages were imaged using fluorescent microscopy within a week of the experiment. All fluorescent images from the phagocytosis experiments are available on Mendeley Data (doi: 10.17632/zrmgjyggmr.1). […]
# [2] = system: BMDMs from PER1^-/-/PER2^-/- knockout (KO) mice; assay: Phagocytosis assay of HiLyte 488 labeled Aβ42 in clock knockout macrophages; type: cell-based, mouse
# Description: (Fig 1B and 1C, S1 Fig). The extended harmonic circadian oscillator model (ECHO version 4.1) was used to analyze the average of the three replicates from each timepoint and predicted that Aβ42 total cellular florescence, and therefore the phagocytosis of Aβ42, oscillated with a circadian period (~26 h, ECHO p-value = 1.61 x 10^−6). Additionally, when compared with PER2 levels extrapolated based on the lumicycle data of the macrophages sampled, we saw that total cellular fluorescence was highest after the zenith of PER2 levels (Fig 1B and 1C). The Aβ42 phagocytosis experiment was then repeated using PER1^-/-/PER2^-/- knockout (KO) mice to confirm the circadian influence of this relationship. BMDMs from the knockout mice were extracted, derived into naïve macrophages, and synchronized as described above. KO macrophages were treated with fluorescently labeled Aβ42 for 2 h, in triplicate, every 4 h for 24 h starting at PS16.
# PER2::LUC C57BL/6J male mice 3–6 months of age bred from Jackson Labs stock strains (Accession # 006852) were used for all WT experiments and were euthanized using CO2 gas and cervical dislocation. […]
# Average cellular pixel intensities were used as a proxy for of Aβ phagocytosis. At least 100 cells measured per time point were analyzed using the above-described software. […]
# [3] = as a free peptide and when bound to HSPGs; cited from earlier work
# From the text: In addition to binding Aβ42, HSPGs regulate the formation of Aβ42 plaques, with highly-sulfated HSPGs accumulating in the plaques. Aβ peptides exist in two forms (Aβ40 or Aβ42) based on the cleavage of the amyloid precursor protein (APP) by β- and γ-secretase. Previous studies show differential phagocytosis of Aβ42 and Aβ40, yet the key amino acids essential to binding are present in Aβ40 (Fig 6C) (13–16, HHQK). However, the anionic bridge between lysine 28 and […], which is broken by HSPGs to allow the formation of Aβ42 aggregates by rapidl ...
substance,measurement,setting,value
Amyloid-beta 42 labeled with HiLyte 488 [Aβ42],Oscillation Type,[1],Forced
same,oscillation of Aβ42 phagocytosis in knockout macrophages (in words),"[2]; 2 h treatment, in triplicate, every 4 h for 24 h starting at PS16, total cellular fluorescence",ablation of the zenith of fluorescence at PS32
same,Oscillation Type,"[2]; ECHO v4.1 fit, average of 3 replicates, log10 mean cell fluorescence, 2 h uptake every 4 h from PS16, PER1-/-/PER2-/- KO BMDMs",Damped
same,aggregation kinetics compared with Aβ40 (in words),[3],higher aggregation kinetics
